Measured values from ChEMBL document CHEMBL3507680, “University of Dundee, Gates Library screen for HepG2 cell viability”.

Experiment: Human HepG2 cell viability assay in 384 well format
Format: toxicity, cell-based
Parameters: dose 125 nL, time 70.5 hour; cytotoxicity at 70.5 h: concentration not given beside the values
Conditions: HepG2 cells, read-out: Inhibition
With Cn1cc(CN2CCC[C@]3(C[C@@H](Oc4ccccn4)CO3)C2)cn1 the cytotoxicity at 70.5 h was -6.69%. Cn1nc(C2CN(S(C)(=O)=O)C2)c2nccnc21 gave a cytotoxicity at 70.5 h of 3.57%. Work on CCC[C@H]1CN(c2nc(CO)cs2)C[C@@H]1NC(=O)C1CCC1 yielded a cytotoxicity at 70.5 h of -5.73%. In the case of O=C(c1ccncc1)N1CCCC(C2=Nc3ccccc3S(=O)(=O)N2)C1 (stereo unspecified), the cytotoxicity at 70.5 h is reported as -3.07%. In the case of CC(O)CN1CCN(C(=O)c2ccnc(N(C)C)c2)CC1 (stereo unspecified), the cytotoxicity at 70.5 h is reported as 14.1%. CN(Cc1cnn(C)c1)C(=O)C1CCCN1Cc1ccccn1 (stereo unspecified) showed a cytotoxicity at 70.5 h of 26.2%. Molecule Cc1ccc(CNCC2CCCN2c2cccnn2)s1 (stereo unspecified) has a cytotoxicity at 70.5 h of 4.46%. With CS(=O)(=O)N1CCC2(CC1)CC(CC(=O)NC1CC1)c1ccccc12 (stereo unspecified) the cytotoxicity at 70.5 h was -20.3%. Molecule CCc1cnc(N2CCC3(CC2)CCN(c2cnn(C)c2)C3=O)nc1 has a cytotoxicity at 70.5 h of 31.2%. For Cc1nc(Nc2ncccn2)cc(C2CCCN2C2CCOCC2)n1 (stereo unspecified), the cytotoxicity at 70.5 h was 1.98%. With CN(C)CCN1CCOCC2(CCCN(C(=O)c3cccc(O)c3)C2)C1 (stereo unspecified) the cytotoxicity at 70.5 h was -2.03%. Molecule COCCNC(=O)Cn1c(-c2ccc(F)cc2)nc(C)c(CCO)c1=O has a cytotoxicity at 70.5 h of -2.18%. In the case of N#Cc1cc(F)c(NCCc2ccc(S(N)(=O)=O)cc2)c(F)c1, the cytotoxicity at 70.5 h is reported as -2.35%. CNC(=O)[C@H]1C[C@@H]2CN(S(=O)(=O)c3ccc(OC)cc3)C[C@@H]2N1C showed a cytotoxicity at 70.5 h of -1.32%. With COc1ccc(-c2noc([C@@H](C)NC(=O)CC(C)C)c2C(=O)O)cc1 the cytotoxicity at 70.5 h was -8.52%. CCS(=O)(=O)N1CCc2c(COC)cncc2C1 gave a cytotoxicity at 70.5 h of 17.2%. With Cc1n[nH]c(C2CN(CC(=O)NCCc3ccccc3)CCO2)n1 (stereo unspecified) the cytotoxicity at 70.5 h was 9%. COc1cc2c(cc1OC)S(=O)(=O)N(Cc1ccccc1)C2=O showed a cytotoxicity at 70.5 h of -14.6%. CCSCCOC(=O)CCCc1ccc2c(c1)CC(=O)N2 gave a cytotoxicity at 70.5 h of -12.3%. For COCCN1C[C@@H]2CN(c3cc(OC)ncn3)CCC[C@]2(C(=O)O)C1, the cytotoxicity at 70.5 h was 9.96%. CC(=O)N1CCN(C2CCc3ccccc32)CC1 (stereo unspecified) showed a cytotoxicity at 70.5 h of -2.55%. CS(=O)(=O)N1C[C@@H](NC(=O)c2ccno2)[C@@H]2OCCC[C@@H]21 showed a cytotoxicity at 70.5 h of -12.2%. Molecule Cc1cc(N2CCCN(C(=O)CSCC3CC3)CC2)ccn1 has a cytotoxicity at 70.5 h of -17.7%. COCc1noc(Cn2ncn3cccc3c2=O)n1 gave a cytotoxicity at 70.5 h of 6.69%. O=c1[nH]nc2nc(N3CCCC3)ccn12 gave a cytotoxicity at 70.5 h of 5.61%. For O=C1CCc2cc(NC(=O)N3CCCN(Cc4cccs4)CC3)ccc21, the cytotoxicity at 70.5 h was -8.02%. CC(=O)N1[C@H](CN(C)C)C[C@@H]2CN(C(=O)c3cccc(F)c3)CC[C@@H]21 gave a cytotoxicity at 70.5 h of -14.7%. Molecule CC1CCCCN1S(=O)(=O)NCc1cccnc1OC1CCCC1 (stereo unspecified) has a cytotoxicity at 70.5 h of -2.43%. Cc1nsc(N2CCCN(CC(=O)N(C)C3CC3)CC2)n1 showed a cytotoxicity at 70.5 h of -4.31%. Work on Cc1cnn(C2CCCN(C(=O)CCNS(C)(=O)=O)C2)c1 (stereo unspecified) yielded a cytotoxicity at 70.5 h of 24.7%. With CSc1ccccc1C(=O)NCCCN1CCc2ccccc2C1 the cytotoxicity at 70.5 h was -5.68%. CC(C)Nc1cc(N2CCN(Cc3ccccc3)C(CCO)C2)ncn1 (stereo unspecified) gave a cytotoxicity at 70.5 h of -1.73%. Molecule Cc1cc(N2CCC3(CCCN(C4CCOCC4)C3=O)C2)ccn1 (stereo unspecified) has a cytotoxicity at 70.5 h of -4.29%. For O=C1CC2(CCCC2)CC(=O)N1Cc1nccs1, the cytotoxicity at 70.5 h was -1.44%. CCN(CC)CCSc1nnc(N2CCN(c3ccc(F)cc3)CC2)s1 showed a cytotoxicity at 70.5 h of -5.54%. Molecule CCc1nccn1C1CCCN(C(=O)c2ccc3[nH]cnc3c2)C1 (stereo unspecified) has a cytotoxicity at 70.5 h of -5.72%. With O=S(=O)(NCC1CCCN(Cc2ccccc2F)C1)C1CC1 (stereo unspecified) the cytotoxicity at 70.5 h was -5.21%. With O=C(CCCNC(=O)C1CCCO1)Nc1ccc(Cl)cc1 (stereo unspecified) the cytotoxicity at 70.5 h was 17.1%. For COc1cccc2c1OCC(C(=O)NCCc1nnc(N)s1)C2 (stereo unspecified), the cytotoxicity at 70.5 h was -5.75%. O=C(C1CCCC1)N1C[C@@H]2CCN(c3cccnc3)C[C@@H]2C1 gave a cytotoxicity at 70.5 h of -11.4%. In the case of Cc1nn(C)c2nc(NC3CCNCC3)sc12, the cytotoxicity at 70.5 h is reported as 1.8%. Work on O=C(CCc1ccc(Cl)s1)N1CCC(N2CCNC2=O)CC1 yielded a cytotoxicity at 70.5 h of -3.74%. In the case of CO[C@@H]1CCN(S(=O)(=O)c2cn(C)cn2)[C@H]1Cc1cnn(C)c1, the cytotoxicity at 70.5 h is reported as -0.546%. Cc1ccsc1C(=O)N1Cc2ccccc2C2(CCN(C)CC2)C1 showed a cytotoxicity at 70.5 h of -6.4%. O=C(c1ccc[nH]1)N1CCCC1c1nc(-c2ccccc2)n[nH]1 (stereo unspecified) gave a cytotoxicity at 70.5 h of -1.48%. In the case of Cc1cccnc1NC(=O)CSc1ccc2c(c1)OCCO2, the cytotoxicity at 70.5 h is reported as -9.85%. With COc1cc(CN(C)Cc2cccnc2)c(SC)cc1OC the cytotoxicity at 70.5 h was -8.67%. O=S1(=O)[C@@H](c2ccccc2)[C@H](CO)CN1c1ccccc1 gave a cytotoxicity at 70.5 h of -4.62%. Work on Clc1cccc(C(CNCc2cccnc2)N2CCOCC2)c1 (stereo unspecified) yielded a cytotoxicity at 70.5 h of 29.7%. Molecule Cc1c(C(=O)NC2(C#N)CCCC2)nnn1-c1ccccc1Cl has a cytotoxicity at 70.5 h of -9.11%. Cc1nc(N2CCC(C(O)c3nccn3C)CC2)c2c(C)noc2n1 (stereo unspecified) showed a cytotoxicity at 70.5 h of 20.2%. O=C(N[C@H]1CN(C2CCOCC2)C[C@@H]1C1CC1)c1cc(O)no1 showed a cytotoxicity at 70.5 h of -7.33%. Cc1ccc(S(=O)(=O)NC2CCC(=O)NC2)cc1Br (stereo unspecified) gave a cytotoxicity at 70.5 h of -4.2%. Work on CNC(=O)CCc1cc(C2CCCCN2C)nc(C)n1 (stereo unspecified) yielded a cytotoxicity at 70.5 h of -7.9%. Work on c1ccc(CN2CC[C@H]3[C@H]2CCN3c2ncccn2)nc1 yielded a cytotoxicity at 70.5 h of -5.09%. Work on Cc1ccc(C(=O)NS(=O)(=O)c2ccccc2Cl)c(=O)[nH]1 yielded a cytotoxicity at 70.5 h of 9.73%. For CS(=O)(=O)NCCCNC(=O)NCc1ccccc1, the cytotoxicity at 70.5 h was -8.73%. Work on CCOC(C)c1noc(CN2CCN(CC3CCCC3)CC2)n1 (stereo unspecified) yielded a cytotoxicity at 70.5 h of -6.48%. Work on CC(C)c1ccc(C2(C(=O)NCCS(N)(=O)=O)CCC2)cc1 yielded a cytotoxicity at 70.5 h of -9.09%. Molecule O=C(Nc1cccnc1)c1nn(C2CCS(=O)(=O)C2)c2c1CCCC2 (stereo unspecified) has a cytotoxicity at 70.5 h of -23.7%. With Cc1cccc(C(=O)N2CC[C@H]3C[C@@H](C)O[C@@H]3C2)n1 the cytotoxicity at 70.5 h was -19.7%. In the case of Clc1cccc(-c2noc(CCN3CCN(c4ccncc4)CC3)n2)c1, the cytotoxicity at 70.5 h is reported as 4%. With CCCn1[nH]cc/c1=N\C(=O)CN1CCc2c(nc(C3CC3)n2C)C1 the cytotoxicity at 70.5 h was -9.16%. With NC[C@H]1CC[C@H](C(NC(=O)C2CC2)c2ccccn2)CC1 (stereo partly specified) the cytotoxicity at 70.5 h was -6.56%. Molecule Cc1ccc(S(=O)(=O)CCC(=O)N(C)Cc2cnn(C)c2)cc1 has a cytotoxicity at 70.5 h of -73.6%. Fc1cccc(O[C@@H]2C[C@H]3CN(Cc4ccncc4)CCN3C2)c1 showed a cytotoxicity at 70.5 h of -15.6%. CSCCc1ccc(NC(=O)NC(C)Cn2cncn2)cc1 (stereo unspecified) gave a cytotoxicity at 70.5 h of -2.38%. With CC(C)COC(C)C(=O)NCc1ccc(OC(C)C)nc1 (stereo unspecified) the cytotoxicity at 70.5 h was -3.57%. CC(C)CCC(=O)Nc1ccc2oc(=O)n(CCN(C)C)c2c1 showed a cytotoxicity at 70.5 h of -1.73%. Work on O=C(Cc1cc2c(cc1Cl)OCCO2)N1CC[C@H](CO)[C@H](O)C1 yielded a cytotoxicity at 70.5 h of -5.99%. Nc1cc(CCC2CN(Cc3ccc4c(c3)OCCO4)CCO2)ccn1 (stereo unspecified) showed a cytotoxicity at 70.5 h of 0.977%. Work on Cc1cc(C(=O)NCCC(=O)N2CCCc3ccccc32)no1 yielded a cytotoxicity at 70.5 h of -4.18%. CC(=O)N1CCC(c2cnc(-c3c(C)nn(C)c3C)cn2)CC1 gave a cytotoxicity at 70.5 h of -9.85%. CC(=O)N1C[C@H]2CN(CC3CC3)C(=O)[C@H]2C1 gave a cytotoxicity at 70.5 h of -0.948%. With CCCC1(CO)CCCN(c2ncnc3c2c(C)nn3C)C1 (stereo unspecified) the cytotoxicity at 70.5 h was -3.54%. COc1ncc(-c2ccc(O)cc2)c(OC)n1 gave a cytotoxicity at 70.5 h of -6.77%. O=C(NCC(F)(F)F)c1ccncc1 showed a cytotoxicity at 70.5 h of 12.7%. With CC(=O)N1CCCC(C(=O)NCc2noc(Cc3ccccc3)n2)C1 (stereo unspecified) the cytotoxicity at 70.5 h was -11.1%. O=C(C1CCC1)N1C[C@H]2CNC[C@H]2C1 showed a cytotoxicity at 70.5 h of 13.3%. Molecule Cn1c(CN2CCOC(Cn3cncn3)C2)nc2ccccc21 (stereo unspecified) has a cytotoxicity at 70.5 h of 13.6%. In the case of CN(Cc1cnn(C)c1)C(=O)NCc1nnc2n1CCC2, the cytotoxicity at 70.5 h is reported as -25.4%.
